The record followed here is ChEMBL document CHEMBL4699579, “A Peptidyl Inhibitor that Blocks Calcineurin-NFAT Interaction and Prevents Acute Lung Injury” (J Med Chem, 2020).

The structures appear in SMILES notation. Starred links: 1 amine or outer side, 2 acyl side, 3 side chain; linkers in the order of their positions; H or OH if unused. Non-standard residues stand in square brackets, D forms with d. Residues, ends and D or L forms follow the SMILES beside them. *: point of attachment. X5 = O=C(O)c1cc(NC(=S)*)ccc1-c1c2ccc(=O)cc-2oc2cc(O)ccc12; Benzoyl(2,3,4,5,6-F5) = O=C(c1c(F)c(F)c(F)c(F)c1F)*; Benzoyl(2,3-Cl2) = O=C(c1cccc(Cl)c1Cl)*; X3 = CC1(C)SC[C@@H](C(=O)[*:2])N1[*:1]; Cyclohexanecarbonyl = O=C(C1CCCCC1)*; Cyclopentanecarbonyl = O=C(C1CCCC1)*; X7 = O=C(c1cc(F)c(F)c(F)c1F)*; Tle = CC(C)(C)[C@H](N)C(=O)O; X4 = O=C(c1ccc(Br)c(Cl)c1)*; X6 = Cc1ccc(C(=O)*)c(F)c1F; AEEA = NCCOCCOCC(=O)O; βAla = NCCC(=O)O; For = O=C* Where only a bound is given, the exact number is not on record here.

The nature of series [1]: Half life in 25% human serum at 5 uM at 37 degC by HPLC analysis. Type of series: ADME, cell-free.
Series [2] can be described thus: Binding affinity to GST-tagged Calcineurin (unknown origin) incubated for 1 hr by fluorescence polarization assay. The arrangement: species or system Homo sapiens.

Regarding `CC[C@H](C)[C@H](NC(=O)[C@@H](NC(=O)[C@@H]1CCCN1C(=O)[C@H](Cc1cnc[nH]1)NC(=O)[C@@H]1CCCN1C(=O)CN)C(C)C)C(=O)N[C@H](C(=O)N[C@H](C(=O)N[C@H](C(=O)NCC(=O)N1CCC[C@H]1C(=O)N[C@@H](Cc1cnc[nH]1)C(=O)N[C@@H](CCC(=O)O)C(=O)N[C@@H](CCC(=O)O)C(=O)O)[C@@H](C)O)[C@@H](C)CC)C(C)C`, the half-life (usually the time needed for the level to fall by half in the phase considered) at 5 µM in series [1] is 1 h.

With `CC[C@H](C)[C@H](NC(=O)[C@@H](NC(=O)C1CCCCC1)C(C)(C)C)C(=O)N[C@H](C(=O)N[C@H](C(=O)N[C@H](C(=O)NCC(=O)N1CCC[C@H]1C(=O)N[C@@H](Cc1c[nH]cn1)C(=O)N[C@@H](CCC(=O)O)C(=O)N[C@@H](CCC(=O)O)C(=O)N[C@@H](Cc1ccc(O)cc1)C(=O)N[C@@H](CCCCNC(=S)Nc1ccc(-c2c3ccc(=O)cc-3oc3cc(O)ccc23)c(C(=O)O)c1)C(N)=O)[C@@H](C)O)[C@@H](C)CC)C(C)(C)C` (Cyclohexanecarbonyl-[Tle]I[Tle]ITGPHEEYK(X5)-NH2), the Kd (in general, the equilibrium constant for the complex coming apart) in series [2] is 207 nM.

For `CC[C@H](C)[C@H](NC(=O)[C@@H](NC(=O)C1CCCC1)C(C)(C)C)C(=O)N[C@H](C(=O)N[C@H](C(=O)N[C@H](C(=O)NCC(=O)N1CCC[C@H]1C(=O)N[C@@H](Cc1c[nH]cn1)C(=O)N[C@@H](CCC(=O)O)C(=O)N[C@@H](CCC(=O)O)C(=O)N[C@@H](Cc1ccc(O)cc1)C(=O)N[C@@H](CCCCNC(=S)Nc1ccc(-c2c3ccc(=O)cc-3oc3cc(O)ccc23)c(C(=O)O)c1)C(N)=O)[C@@H](C)O)[C@@H](C)CC)C(C)(C)C` (Cyclopentanecarbonyl-[Tle]I[Tle]ITGPHEEYK(X5)-NH2), in series [2], the dissociation constant Kd came out at 357 nM.

For the molecule `CC[C@H](C)[C@H](NC(=O)[C@@H](NC=O)C(C)(C)C)C(=O)N[C@H](C(=O)N[C@H](C(=O)N[C@H](C(=O)NCC(=O)N1CCC[C@H]1C(=O)N[C@@H](Cc1c[nH]cn1)C(=O)N[C@@H](CCC(=O)O)C(=O)N[C@@H](CCC(=O)O)C(=O)N[C@@H](Cc1ccc(O)cc1)C(=O)N[C@@H](CCCCNC(=S)Nc1ccc(-c2c3ccc(=O)cc-3oc3cc(O)ccc23)c(C(=O)O)c1)C(N)=O)[C@@H](C)O)[C@@H](C)CC)C(C)(C)C` (For-[Tle]I[Tle]ITGPHEEYK(X5)-NH2), in series [2], the Kd is greater than 5800 nM.

On to `CC[C@H](C)[C@H](NC(=O)[C@@H](NC(=O)[C@@H](NC(=O)[C@@H](NC(=O)[C@@H]1CCCN1C(=O)[C@H](Cc1cnc[nH]1)NC(=O)[C@@H]1CCCN1C(=O)CN)C(C)(C)C)[C@@H](C)CC)C(C)(C)C)C(=O)N[C@H](C(=O)NCC(=O)N1[C@H](C(=O)N[C@@H](Cc2cnc[nH]2)C(=O)N[C@@H](CCC(=O)O)C(=O)N[C@@H](CCC(=O)O)C(=O)O)CSC1(C)C)[C@@H](C)O` (H-GPHP[Tle]I[Tle]ITG[X3]HEE-OH), for which the Kd in series [2] came out at 2.6 nM. This molecule had a half-life at 5 µM in series [1] of 6 h.

Consider `CC[C@H](C)[C@H](NC(=O)[C@@H](NC(=O)c1ccc(Br)c(Cl)c1)C(C)(C)C)C(=O)N[C@H](C(=O)N[C@H](C(=O)N[C@H](C(=O)NCC(=O)N1CCC[C@H]1C(=O)N[C@@H](Cc1c[nH]cn1)C(=O)N[C@@H](CCC(=O)O)C(=O)N[C@@H](CCC(=O)O)C(=O)N[C@@H](Cc1ccc(O)cc1)C(=O)N[C@@H](CCCCNC(=S)Nc1ccc(-c2c3ccc(=O)cc-3oc3cc(O)ccc23)c(C(=O)O)c1)C(N)=O)[C@@H](C)O)[C@@H](C)CC)C(C)(C)C` (X4-[Tle]I[Tle]ITGPHEEYK(X5)-NH2), for which the Kd in series [2] amounted to 189 nM.

With `CC[C@H](C)[C@H](NC(=O)[C@@H](NC(=O)c1ccc(C)c(F)c1F)C(C)(C)C)C(=O)N[C@H](C(=O)N[C@H](C(=O)N[C@H](C(=O)NCC(=O)N1CCC[C@H]1C(=O)N[C@@H](Cc1c[nH]cn1)C(=O)N[C@@H](CCC(=O)O)C(=O)N[C@@H](CCC(=O)O)C(=O)N[C@@H](Cc1ccc(O)cc1)C(=O)N[C@@H](CCCCNC(=S)Nc1ccc(-c2c3ccc(=O)cc-3oc3cc(O)ccc23)c(C(=O)O)c1)C(N)=O)[C@@H](C)O)[C@@H](C)CC)C(C)(C)C` (X6-[Tle]I[Tle]ITGPHEEYK(X5)-NH2), in series [2], the Kd turned out to be 74 nM.

`CC[C@H](C)[C@H](NC(=O)[C@@H](NC(=O)c1cc(F)c(F)c(F)c1F)C(C)(C)C)C(=O)N[C@H](C(=O)N[C@H](C(=O)N[C@H](C(=O)NCC(=O)N1CCC[C@H]1C(=O)N[C@@H](Cc1c[nH]cn1)C(=O)N[C@@H](CCC(=O)O)C(=O)N[C@@H](CCC(=O)O)C(=O)N[C@@H](Cc1ccc(O)cc1)C(=O)N[C@@H](CCCCNC(=S)Nc1ccc(-c2c3ccc(=O)cc-3oc3cc(O)ccc23)c(C(=O)O)c1)C(N)=O)[C@@H](C)O)[C@@H](C)CC)C(C)(C)C` (X7-[Tle]I[Tle]ITGPHEEYK(X5)-NH2): the Kd in series [2] turned out to be 32 nM.

As to `CC[C@H](C)[C@H](NC(=O)[C@@H](NC(=O)c1c(F)c(F)c(F)c(F)c1F)C(C)(C)C)C(=O)N[C@H](C(=O)N[C@H](C(=O)N[C@H](C(=O)NCC(=O)N1CCC[C@H]1C(=O)N[C@@H](Cc1c[nH]cn1)C(=O)N[C@@H](CCC(=O)O)C(=O)N[C@@H](CCC(=O)O)C(=O)N[C@@H](Cc1ccc(O)cc1)C(=O)N[C@@H](CCCCNC(=S)Nc1ccc(-c2c3ccc(=O)cc-3oc3cc(O)ccc23)c(C(=O)O)c1)C(N)=O)[C@@H](C)O)[C@@H](C)CC)C(C)(C)C` ({Benzoyl(2,3,4,5,6-F5)}-[Tle]I[Tle]ITGPHEEYK(X5)-NH2), the Kd in series [2] worked out at 77 nM.

Consider `CC[C@H](C)[C@H](NC(=O)[C@@H](NC(=O)c1cccc(Cl)c1Cl)C(C)(C)C)C(=O)N[C@H](C(=O)N[C@H](C(=O)N[C@H](C(=O)N[C@@H](CC(=O)O)C(=O)N[C@@H](CCC(N)=O)C(=O)N[C@@H](Cc1ccc(O)cc1)C(=O)N[C@@H](CCCNC(=N)N)C(=O)NCCC(=O)N[C@@H](CCCCNC(=S)Nc1ccc(-c2c3ccc(=O)cc-3oc3cc(O)ccc23)c(C(=O)O)c1)C(N)=O)[C@@H](C)O)[C@@H](C)CC)C(C)(C)C` ({Benzoyl(2,3-Cl2)}-[Tle]I[Tle]ITDQYR[βAla]K(X5)-NH2), for which the Kd in series [2] came to 64 nM.

In the case of `CC[C@H](C)[C@H](NC(=O)[C@@H](NC(=O)c1cccc(Cl)c1Cl)C(C)(C)C)C(=O)N[C@H](C(=O)N[C@H](C(=O)N[C@H](C(=O)NCC(=O)N1CCC[C@H]1C(=O)N[C@@H](Cc1c[nH]cn1)C(=O)N[C@@H](CCC(=O)O)C(=O)N[C@@H](CCC(=O)O)C(=O)N[C@@H](Cc1ccc(O)cc1)C(=O)N[C@@H](CCCCNC(=S)Nc1ccc(-c2c3ccc(=O)cc-3oc3cc(O)ccc23)c(C(=O)O)c1)C(N)=O)[C@@H](C)O)[C@@H](C)CC)C(C)(C)C` ({Benzoyl(2,3-Cl2)}-[Tle]I[Tle]ITGPHEEYK(X5)-NH2), in series [2], the Kd is 41 nM.

Consider `CC[C@H](C)[C@H](NC(=O)[C@@H](NC(=O)c1cccc(Cl)c1Cl)C(C)(C)C)C(=O)N[C@H](C(=O)N[C@H](C(=O)N[C@H](C(=O)NCCOCCOCC(=O)N[C@@H](CCCCNC(=S)Nc1ccc(-c2c3ccc(=O)cc-3oc3cc(O)ccc23)c(C(=O)O)c1)C(N)=O)[C@@H](C)O)[C@@H](C)CC)C(C)(C)C` ({Benzoyl(2,3-Cl2)}-[Tle]I[Tle]IT[AEEA]K(X5)-NH2), for which the Kd in series [2] was 700 nM.
